According to patent US20170312205A1, “USE OF ESTERS OF N-ACYLATED DERIVATIVES OF AMINO ACIDS AND POLYOLS AS AN ANTI-AGEING AGENT FOR HUMAN SKIN” (SOCIETE D'EXPLOITATION DE PRODUITS POUR LES INDUSTRIES …, priority 2014, published 2017):

System: normal human fibroblasts
Test: in vitro study of migration of human fibroblasts (Oris migration plates, Calcein AM labeling)
Format: cell-based
Conditions: for mean migration distance of the cells (Dmigr): 40 hours incubation at 37° C., mitomycin C pretreated, quadruplicate; for [(Dmigr) − (Dmigr)control]/(Dmigr)control (percentage of migratory effect relative to the control): 40 hours incubation, vs FCS culture control
Description: The fibroblast migration test is a test commonly used in the cosmetics and pharmaceutical sector and is especially described in the international patent application published under the number WO 2010/056908 A1. It allows in vitro reproduction of the phenomenon of fibroblast migration; a decrease in the migratory capacities of the fibroblasts being reported as associated with aging of the skin (1) (4).
Normal human fibroblasts at the R5 passage were amplified in a T75 culture flask and then inoculated at 25 000 cells/well in specific culture plates. These plates are dedicated to migration (Oris™ from Platypus), integrating a central zone without initial deposition of cells (stoppers). After 96 hours of plate amplification and 2 hours before the treatment, all the wells were treated with mitomycin C (2 hours at […]), so as to stop the cell proliferation, and thus to observe only the migration phenomenon. The stoppers were removed, and the references, the products or standard medium for fibroblasts containing 2% fetal calf serum (FCS) were applied to the cells under 100 μl, and then incubated for 40 hours at 37° C. under 5% CO2. Each condition was performed in quadruplicate.
On conclusion of the incubation, the cells were labeled with Calcein AM (5 μM, 20 minutes at 37° C.), so as to visualize the viable cells by fluorescence (revelation of the cytoplasm). Photos were taken, after having inserted a black screen under the culture plates, so as to visualize only the zone where the cells were not deposited. Thus, only the cells which had migrated were photographed (×4 objective lens; with a ×0.7 reducer on the camera adapter). The mean migration distance of the cells (Dmigr) was measured with NIS-Elements-BR 3.0 (4 cells). The means and standard deviations of the distances were calculated on the quadruplicates. The percentages of migratory effect relative to the control, and also the statistics (Student test) were also calculated.

Substance: Epidermal Growth Factor [Epidermal Growth Factor (EGF)]
- mean migration distance of the cells (Dmigr) (EGF 10 ng/ml): 203 ± 20 μm
- [(Dmigr) − (Dmigr)control]/(Dmigr)control (percentage of migratory effect relative to the control) (EGF 10 ng/ml): +21%
- mean migration distance of the cells (Dmigr) (EGF 50 ng/ml): 212 ± 8 μm
- [(Dmigr) − (Dmigr)control]/(Dmigr)control (percentage of migratory effect relative to the control) (EGF 50 ng/ml): +26%
- migration distance of the fibroblasts (result in words) (EGF at 10 and 50 ng/ml with normal human fibroblasts, validates the model): increase in the migration distance
